Legend:
[1] = Liquid, Alternating current cell with electrodes
[2] = molar heat capacity at constant pressure; conditions: 101.33 kPa, Liquid, Small sample (50 mg) DSC

CCn1cc[n+](C)c1.COCCOCCOS(=O)(=O)[O-] [1-ethyl-3-methylimidazolium 2-(2-methoxyethoxy) ethylsulfate]
Conditions | electrical conductivity, [1] [S/m] | molar heat capacity at constant pressure, [2] [J/K/mol]
293.2 K | 0.11 | –
298.2 K | 0.147 | –
303.2 K | 0.194 | 526.38
308.2 K | 0.244 | 527.94
313.2 K | 0.307 | 529.49
318.2 K | 0.378 | 531.04
323.2 K | 0.459 | 532.59
328.2 K | 0.545 | 533.83
333.2 K | 0.641 | 535.7
338.2 K | – | 537.25
343.2 K | 0.859 | 538.8
348.2 K | – | 540.66
353.2 K | 1.12 | 542.21
358.2 K | – | 544.08

CCOS(=O)(=O)[O-].CCn1cc[n+](C)c1 [1-ethyl-3-methylimidazolium ethyl sulfate]
Conditions | electrical conductivity, [1] [S/m] | molar heat capacity at constant pressure, [2] [J/K/mol]
293.2 K | 0.31 | –
298.2 K | 0.398 | –
303.2 K | 0.493 | 429.81
308.2 K | 0.603 | 431.7
313.2 K | 0.722 | 435.01
318.2 K | 0.852 | 437.14
323.2 K | 1 | 441.39
328.2 K | 1.17 | 444.46
333.2 K | 1.34 | 447.3
338.2 K | – | 450.13
343.2 K | 1.74 | 452.97
348.2 K | – | 456.51
353.2 K | 2.15 | 461
358.2 K | – | 463.6

CCn1cc[n+](C)c1.O=S(=O)([O-])C(F)(F)F [1-ethyl-3-methylimidazolium trifluoromethanesulfonate]
Conditions | electrical conductivity, [1] [S/m] | molar heat capacity at constant pressure, [2] [J/K/mol]
293.2 K | 0.834 | –
298.2 K | 0.979 | –
303.2 K | 1.16 | 379.42
308.2 K | 1.34 | 381.5
313.2 K | 1.52 | 383.33
318.2 K | 1.74 | 385.41
323.2 K | 1.94 | 387.49
328.2 K | 2.17 | 389.57
333.2 K | 2.42 | 391.65
338.2 K | – | 393.74
343.2 K | 2.94 | 395.82
348.2 K | – | 397.9
353.2 K | 3.51 | 399.72
358.2 K | – | 401.8

CCn1cc[n+](C)c1.N#CN=C=[N-] [1-ethyl-3-methylimidazolium dicyanamide]
Conditions | electrical conductivity, [1] [S/m] | molar heat capacity at constant pressure, [2] [J/K/mol]
293.2 K | 1.89 | –
298.2 K | 2.2 | –
303.2 K | 2.55 | 328.01
308.2 K | 2.9 | 329.96
313.2 K | 3.29 | 332.97
318.2 K | 3.68 | 335.1
323.2 K | 4.1 | 338.64
328.2 K | 4.54 | 340.77
333.2 K | 5.02 | 342.72
338.2 K | – | 344.49
343.2 K | 5.93 | 346.44
348.2 K | – | 348.92
353.2 K | 6.86 | 351.58
358.2 K | – | 354.24

CCn1cc[n+](C)c1.F[B-](F)(F)F [1-ethyl-3-methylimidazolium tetrafluoroborate]
Conditions | electrical conductivity, [1] [S/m] | molar heat capacity at constant pressure, [2] [J/K/mol]
293.2 K | 1.38 | –
298.2 K | 1.57 | –
303.2 K | 1.789 | 306.26
308.2 K | 2.04 | 308.44
313.2 K | 2.32 | 310.61
318.2 K | 2.59 | 312.79
323.2 K | 2.91 | 314.38
328.2 K | 3.25 | 315.37
333.2 K | 3.59 | 316.36
338.2 K | – | 318.34
343.2 K | 4.35 | 319.33
348.2 K | – | 321.3
353.2 K | 5.18 | 322.89
358.2 K | – | 323.48
